Paper PMC5681660, “Reduced hepatitis B and D viral entry using clinically applied drugs as novel inhibitors of the bile acid transporter NTCP” (Scientific Reports, 2017)
Counter-ions that a name gives are not always drawn. Like-named read-outs stand apart in the source and are kept apart here. Starred links: 1 amine or outer side, 2 acyl side, 3 side chain; linkers in the order of their positions; H or OH if unused. Positions of bridges follow the written chain, without caps; N, C: chain ends. Non-standard residues stand in square brackets, D forms with d. Residues, ends and D or L forms follow the SMILES beside them. *: point of attachment. X1 = NC1=N[C@@H]([C@H](N[*:1])C(=O)[*:2])C[C@H](O)N1; ΔAla(Z-3-ureido) = NC(=O)N/C=C(\N)C(=O)O; β3hOrn = NCCC[C@H](N)CC(=O)*; Dap = NC[C@H](N)C(=O)O

Experiments:
human NTCP [1] = molecular target: T1, human NTCP (Homo sapiens, UniProt Q14973); assay: Screening taurocholate uptake assay (96-well, [14C]taurocholate, 10 µM drug)
T1 sequence (Q14973 1-349): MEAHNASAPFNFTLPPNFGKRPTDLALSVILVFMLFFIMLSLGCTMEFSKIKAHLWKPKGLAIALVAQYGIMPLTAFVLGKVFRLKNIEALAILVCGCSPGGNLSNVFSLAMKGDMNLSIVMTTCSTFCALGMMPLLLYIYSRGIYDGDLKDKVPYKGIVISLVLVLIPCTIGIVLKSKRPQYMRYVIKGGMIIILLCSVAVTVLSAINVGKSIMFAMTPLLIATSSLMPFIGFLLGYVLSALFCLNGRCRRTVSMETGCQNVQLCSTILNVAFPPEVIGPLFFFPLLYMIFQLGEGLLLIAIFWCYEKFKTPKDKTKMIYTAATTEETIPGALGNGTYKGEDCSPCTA

human NTCP [2] = molecular target: T1, human NTCP; assay: Screening fluorescent competitive Myrcludex B-FITC binding assay (96-well, 10 µM drug)
[3] = Prestwick library screen, taurocholate uptake, 10 µM drug
[4] = ranking score beside the functional and binding assay B-scores of the screen
[5] = Prestwick library screen, Myrcludex B-FITC binding, 10 µM drug
[6] = combined ranking from functional and binding screening assays
[7] = screen, 10 µM drug, taurocholate uptake
[8] = screen, 10 µM drug, Myrcludex B-FITC binding
[9] = Prestwick library screen, 10 µM drug, B-score of taurocholate uptake
[10] = combined ranking from functional and binding assay B-scores
[11] = Prestwick library screen, 10 µM drug, B-score of Myrcludex B-FITC binding

Compound | Ranking score (human NTCP [1]; [6]) | B-score functional assay (human NTCP [1]; [7]) | B-score binding assay (human NTCP [2]; [8]) | B-score functional assay (human NTCP [1]; [9]) | Ranking score (human NTCP [1]; [10]) | B-score binding assay (human NTCP [2]; [11]) | further results
O=C(CCCN1CC=C(n2c(=O)[nH]c3ccccc32)CC1)c1ccc(F)cc1 [Droperidol] | – | – | – | – | – | – | B-score functional assay (human NTCP [1]; [3]): 0.035; Ranking score (human NTCP [1]; [4]): 713.526; B-score binding assay (human NTCP [2]; [5]): 0.092
O=P(O)(O)C(Cl)(Cl)P(=O)(O)O [Clodronate] | 443.089 | -0.468 | -0.166 | – | – | – | –
NCCC[C@H](N)CC(=O)N[C@H]1CNC(=O)[C@H]([C@H]2C[C@H](O)NC(N)=N2)NC(=O)/C(=C/NC(N)=O)NC(=O)[C@H](CO)NC(=O)[C@H](CO)NC1=O.O=S(=O)(O)O [Viomycin sulfate] (β3hOrn-[Dap]SS[ΔAla(Z-3-ureido)][X1]; lactam 1-C) | – | – | – | 0.436 | 846.67 | 0.234 | –
Cc1ccnc(NS(=O)(=O)c2ccc(N)cc2)n1 [Sulfamerazine] | – | – | – | 1.015 | 923.898 | 0.205 | –
COc1ccc2c3c1O[C@H]1C[C@@H](O)C=C[C@@]31CCN(C)C2 [Galanthamine hydrobromide] | – | – | – | – | – | – | B-score functional assay (human NTCP [1]; [3]): 0.072; Ranking score (human NTCP [1]; [4]): 808.114; B-score binding assay (human NTCP [2]; [5]): 0.486
CO[C@@]1(NC(=O)Cc2cccs2)C(=O)N2C(C(=O)O)=C(COC(N)=O)CS[C@@H]21 [Cefoxitin sodium salt] | – | – | – | 1.114 | 868.493 | 0.041 | –
CN[C@H](CC(C)C)C(=O)N[C@H]1C(=O)N[C@@H](CC(N)=O)C(=O)N[C@H]2C(=O)N[C@H]3C(=O)N[C@H](C(=O)N[C@H](C(=O)O)c4cc(O)cc(O)c4-c4cc3ccc4O)[C@H](O)c3ccc(c(Cl)c3)Oc3cc2cc(c3O[C@@H]2O[C@H](CO)[C@@H](O)[C@H](O)[C@H]2O[C@H]2C[C@](C)(N)[C@H](O)[C@H](C)O2)Oc2ccc(cc2Cl)[C@H]1O [Vancomycin hydrochloride] | – | – | – | – | – | – | B-score functional assay (human NTCP [1]): -0.819; Ranking score (human NTCP [1]): 571.108; B-score binding assay (human NTCP [2]): 1.401
CCCCNc1ccc(C(=O)OCCOCCOCCOCCOCCOCCOCCOCCOCCOC)cc1 [Benzonatate] | – | – | – | 0.062 | 933.857 | 2.274 | –
CC(C)(N)Cc1ccccc1.Cl [Phentermine hydrochloride] | – | – | – | 2.461 | 1114.52 | 0.892 | –
C[C@]12C[C@H](O)[C@H]3[C@@H](CCC4=CC(=O)CC[C@@]43C)[C@@H]1CC[C@@H]2C(=O)CO [Corticosterone] | 434.757 | 1.754 | -1.468 | – | – | – | –
CC(C)(C)NCC(O)c1cc(O)cc(O)c1.CC(C)(C)NCC(O)c1cc(O)cc(O)c1.O=S(=O)(O)O (stereo not drawn) [Terbutaline hemisulfate] | 291.443 | 2.669 | -2.462 | – | – | – | –
NCCCC(O)(P(=O)(O)O)P(=O)(O)O [Alendronate sodium] | 453.598 | 0.279 | -0.968 | – | – | – | –
COc1ccc2cc([C@H](C)C(=O)O)ccc2c1 [Naproxen] | 422.428 | -0.433 | -0.298 | – | – | – | –
COc1ccc2[nH]c([S+]([O-])Cc3ncc(C)c(OC)c3C)nc2n1 (stereo not drawn) [Tenatoprazole] | – | – | – | – | – | – | B-score functional assay (human NTCP [1]): -1.232; Ranking score (human NTCP [1]): 199.975; B-score binding assay (human NTCP [2]): -1.326
NCCc1ccc(O)c(O)c1 [Dopamine hydrochloride] | – | – | – | – | – | – | B-score functional assay (human NTCP [1]; [3]): -0.07; Ranking score (human NTCP [1]; [4]): 802.566; B-score binding assay (human NTCP [2]; [5]): 1.493
CN1C(C(=O)Nc2ccccn2)=C(O)c2ccccc2S1(=O)=O [Piroxicam] | – | – | – | – | – | – | B-score functional assay (human NTCP [1]; [3]): 0.754; Ranking score (human NTCP [1]; [4]): 662.993; B-score binding assay (human NTCP [2]; [5]): -0.312
CNS(=O)(=O)Cc1ccc2[nH]cc(CCN(C)C)c2c1 [Sumatriptan succinate] | – | – | – | – | – | – | B-score functional assay (human NTCP [1]): 0.496; Ranking score (human NTCP [1]): 810.351; B-score binding assay (human NTCP [2]): 0.075
Cyanocobalamin | – | – | – | – | – | – | B-score functional assay (human NTCP [1]; [3]): 0.223; Ranking score (human NTCP [1]; [4]): 774.968; B-score binding assay (human NTCP [2]; [5]): 0.087
O=C(O)COC(=O)Cc1ccccc1Nc1c(Cl)cccc1Cl [Aceclofenac] | 377.221 | -0.535 | -0.456 | – | – | – | –
CN(C)CCOC(c1ccc(Cl)cc1)c1ccccn1.O=C(O)/C=C\C(=O)O (stereo not drawn) [Carbinoxamine maleate salt] | 433.532 | 3.2 | -1.565 | – | – | – | –
Cc1nnc(SCC2=C(C(=O)O)N3C(=O)[C@@H](NC(=O)Cn4cnnn4)[C@H]3SC2)s1 [Cefazolin sodium salt] | – | – | – | – | – | – | B-score functional assay (human NTCP [1]; [3]): 0.093; Ranking score (human NTCP [1]; [4]): 718.895; B-score binding assay (human NTCP [2]; [5]): 0.04

Compound | Ranking score (human NTCP [1]; [6]) | B-score functional assay (human NTCP [1]; [7]) | B-score binding assay (human NTCP [2]; [8]) | B-score functional assay (human NTCP [1]; [9]) | Ranking score (human NTCP [1]; [10]) | B-score binding assay (human NTCP [2]; [11]) | further results
Cc1onc(-c2ccccc2)c1-c1ccc(S(N)(=O)=O)cc1 [Valdecoxib] | – | – | – | – | – | – | B-score functional assay (human NTCP [1]; [3]): -0.028; Ranking score (human NTCP [1]; [4]): 650.385; B-score binding assay (human NTCP [2]; [5]): 0.051
COc1ccccc1OCCNCC(O)COc1cccc2[nH]c3ccccc3c12 (stereo not drawn) [Carvedilol] | 348.775 | -0.341 | -0.836 | – | – | – | –
CN(C)CCc1c[nH]c2ccc(Cn3cncn3)cc12 [Rizatriptan benzoate] | – | – | – | – | – | – | B-score functional assay (human NTCP [1]; [3]): -0.205; Ranking score (human NTCP [1]; [4]): 781.971; B-score binding assay (human NTCP [2]; [5]): 3.436
c1ccc(CNc2ncnc3[nH]cnc23)cc1 [Aminopurine, 6-benzyl] | 337.92 | -0.027 | -1.308 | – | – | – | –
Cl.Cl.Fc1ccc(C(OCCN2CCN(CCCc3ccccc3)CC2)c2ccc(F)cc2)cc1 [GBR 12909 dihydrochloride] | 416.575 | -0.602 | -0.172 | – | – | – | –
CC(=O)OCC1=C(C(=O)O)N2C(=O)[C@@H](NC(=O)Cc3cccs3)[C@H]2SC1 [Cephalothin sodium salt] | 427.172 | -1.381 | 0.561 | – | – | – | –
Cc1cc(NC(=O)C2=C(O)c3ccccc3S(=O)(=O)N2C)no1 [Isoxicam] | – | – | – | 1.391 | 933.01 | 0.145 | –
CCC1(c2ccccc2)NC(=O)N(C)C1=O (stereo not drawn) [Mephenytoin] | – | – | – | – | – | – | B-score functional assay (human NTCP [1]; [3]): 0.862; Ranking score (human NTCP [1]; [4]): 812.389; B-score binding assay (human NTCP [2]; [5]): 0
C#C[C@]1(O)CC[C@H]2[C@@H]3CCC4=CC(=O)CCC4=C3C=C[C@@]21CC [Gestrinone] | 385.482 | -0.358 | -0.596 | – | – | – | –
Cc1[nH]c(=O)c(C#N)cc1-c1ccncc1 [Milrinone] | – | – | – | 0.094 | 877.639 | 0.945 | –
Clc1ccc2nsnc2c1NC1=NCCN1 [Tizanidine HCl] | 334.885 | -0.107 | -1.169 | – | – | – | –
CC(C)(Sc1cc(C(C)(C)C)c(O)c(C(C)(C)C)c1)Sc1cc(C(C)(C)C)c(O)c(C(C)(C)C)c1 [Probucol] | – | – | – | 0.089 | 969.367 | 3.305 | –
CCC(=O)O[C@@](Cc1ccccc1)(c1ccccc1)[C@@H](C)CN(C)C [Levopropoxyphene napsylate] | – | – | – | – | – | – | B-score functional assay (human NTCP [1]): 0.245; Ranking score (human NTCP [1]): 726.763; B-score binding assay (human NTCP [2]): 0
Cc1cc(C(C)(C)C)c(O)c(C)c1CC1=NCCN1 [Oxymetazoline hydrochloride] | – | – | – | 0.493 | 1060.78 | 2.755 | –
CN1CCCN(C(c2ccccc2)c2ccc(Cl)cc2)CC1.Cl.Cl (stereo not drawn) [Homochlorcyclizine dihydrochloride] | – | – | – | 0.737 | 1053.65 | 1.404 | –
Cc1cn([C@H]2C[C@H](N=[N+]=[N-])[C@@H](CO)O2)c(=O)[nH]c1=O [Zidovudine, AZT] | – | – | – | 1.119 | 985.737 | 0.429 | –
NC(=O)c1cc[n+](CC2=C(C(=O)O)N3C(=O)[C@@H](NC(=O)[C@@H](c4ccccc4)S(=O)(=O)[O-])[C@H]3SC2)cc1 [Cefsulodin sodium salt] | – | – | – | – | – | – | B-score functional assay (human NTCP [1]; [3]): 0.682; Ranking score (human NTCP [1]; [4]): 669.358; B-score binding assay (human NTCP [2]; [5]): -0.269
CCCCOc1cc(C(=O)OCCN(CC)CC)ccc1N [Benoxinate hydrochloride] | 454.623 | 0.537 | -1.11 | – | – | – | –
CN1C(C)(C)CCCC1(C)C [Pempidine tartrate] | – | – | – | 1.102 | 1065.26 | 1.02 | –
CN(C)CCCO[C@@H]1[C@H]2OC(C)(C)O[C@H]2O[C@@H]1[C@H](O)CO [Amiprilose hydrochloride] | – | – | – | – | – | – | B-score functional assay (human NTCP [1]; [3]): 0.017; Ranking score (human NTCP [1]; [4]): 760.053; B-score binding assay (human NTCP [2]; [5]): 0.378
CCOC(=O)[C@H](CCc1ccccc1)N[C@H]1CCc2ccccc2N(CC(=O)O)C1=O [Benazepril HCl] | – | – | – | 1.384 | 918.755 | 0.109 | –
